Experimental findings from patent US20030176508A1, “Ferulic acid ethyl-guaiacol or vinyl-guaiacol as preservative combination in cosmetic compositions” (priority 2000, published 2003) are described below.

Common to all, as to type: cell-based
For experiment [1], the system named is Bacteria Pool. Kind of experiment: Challenge test of hand lotion with bacteria pool. On the set-up: key to Bacterial Growth Rating 1 day / Bacterial Growth Rating 1 wk / Bacterial Growth Rating 3 wk: 1: 0 (No Growth); 2: 1-4; 3: 5-10; 4: 11-25; 26-50; 6: 51-100; 7: 101-200; 8: 201-300; 9: (TNTC) too numerous to count; 10: (TNTC) solid m. The note with it: 1000 ppm of each compound; for Bacterial Growth Rating 1 wk: streaked 1 week after inoculation; for Bacterial Growth Rating 2 wk: streaked 2 weeks after inoculation; for Bacterial Growth Rating 3 wk: streaked 3 weeks after inoculation; for Bacterial Growth Rating 1 day: streaked 1 day after inoculation; for Bacterial Growth Rating 2 day: streaked 2 days after inoculation. How it is done:
(§1) The samples were tested by the challenge test described below. In this challenge test, samples were stored at room temperatures, inoculated at zero days and streaked at 0 days, 1 day, 2 days, 1 week, 2 weeks and 3 weeks. […] Twenty-five grams of sample are weighed out in one-ounce glass jars. […] Biocide was dissolved into solution before use and different concentrations are prepared by adding the appropriate amount of the biocide solution to the samples. […] A negative control is included using a sample without any biocide. 4. The bacteria pool inoculum is made fresh on the day of inoculation by using equal volumes of the 24 hour cultures of the ATCC bacteria grown individually in nutrient broth at 30° C. […] 5. Before inoculation, samples are streaked on TSA (tryptic soy agar) plates with sterile cotton swabs. The plates are incubated at 30° C. for 48 hours and then read using a bacterial colony counter and rated for microbial growth according to the Growth Rating Chart. […] Samples are inoculated with 0.05 mL (for 25 g samples) of the […]. […] Immediately after inoculation, samples are streaked with sterile cotton swabs on TSA plates. The plates are then incubated at 30° C. for 48 hours. The samples are incubated at room temperature. 8. Samples are streaked again at 1 day, 2 days, 1 week, 2 weeks and 3 weeks. […] All plates are incubated 48 hours at 30° C. then read and rated according to the Growth Rating Chart. […] Samples are kept at room temperature.

Experiment [2] deals with Aspergillus niger ATCC #16404. Put plainly: Challenge test of hand lotion with A. niger and S. cerevisiae (A. niger rating). The note with it: 1000 ppm of each compound, A. niger (first figure of cell); for Bacterial Growth Rating 1 wk: 1 week; for Bacterial Growth Rating 2 wk: 2 weeks; for Bacterial Growth Rating 3 wk: 3 weeks; for Bacterial Growth Rating 2 day: 2 days. The method, then: (§2) The samples were tested by the challenge test described below. In this challenge test, samples were stored at room temperatures, inoculated at zero days and streaked at 0 days, 1 day, 2 days, 1 week, 2 weeks and 3 weeks. […] Twenty-five grams of sample are weighed out in one-ounce glass jars. […] Biocide is dissolved into solution before use and different concentrations are prepared by adding the appropriate amount of the biocide solution to the samples. […] A negative control is included using a sample without any biocide. […] Before inoculation, samples are streaked on MYA (malt yeast agar) plates with sterile cotton swabs. The plates are incubated at 30° C. for 48 hours and then read using a bacterial colony counter and rated for microbial growth according to the Growth Rating Chart. […] 5. The inoculum is prepared by adding 9.9 mL sterile 0.85% saline solution to a pure culture slant grown on MYA. A cotton-tipped swab is used to gently rub the surface of the slant to free the cells. […] The yeast and fungus used are: [table] […] Samples are inoculated with 0.05 mL (for 25 g samples) of the An suspension and 0.05 mL of the Sc suspension. 7. Immediately after inoculation, samples are streaked with sterile cotton swabs on MYA plates. The plates are then incubated at 30° C. for 48 hours. The samples are incubated at room temperature. 8. Samples are streaked again at 1 day, 2 days, 1 week, 2 weeks and 3 weeks. 9. All plates are incubated 48 hours at 30° C. then read and rated according to the Growth Rating Chart. Samples are kept at room temperature.

Experiment [3] has as its system Saccharomyces cerevisiae #4105. Kind of experiment: Challenge test of hand lotion with A. niger and S. cerevisiae (S. cerevisiae rating). The settings on record: 1000 ppm of each compound, S. cerevisiae (second figure of cell); for Bacterial Growth Rating 1 wk: 1 week; for Bacterial Growth Rating 2 wk: 2 weeks; for Bacterial Growth Rating 3 wk: 3 weeks; for Bacterial Growth Rating 2 day: 2 days. How it is done:
as §2

Experiment [4] concerns Bacteria Pool. Put plainly: Challenge test of shampoo with bacteria pool. The arrangement: key: 1: 0 (No Growth); 2: 1-4; 3: 5-10; 4: 11-25; 26-50; 6: 51-100; 7: 101-200; 8: 201-300; 9: (TNTC) too numerous to count; 10: (TNTC) solid m. The settings on record: 1000 ppm of each compound; for Bacterial Growth Rating 1 wk: streaked 1 week after inoculation; for Bacterial Growth Rating 2 wk: streaked 2 weeks after inoculation; for Bacterial Growth Rating 3 wk: streaked 3 weeks after inoculation; for Bacterial Growth Rating 1 day: streaked 1 day after inoculation; for Bacterial Growth Rating 2 day: streaked 2 days after inoculation. The method, then: as §1

As for `C=Cc1ccc(O)c(OC)c1` [vinylguaiacol, 4-hydroxy-3-methoxystyrene], in the experiment on Bacteria Pool [1], the “Bacterial Growth Rating 1 wk” value was 4 (11-25), the “Bacterial Growth Rating 2 wk” value is recorded as 3 (5-10), the “Bacterial Growth Rating 3 wk” value is recorded as 1 (0 (No Growth)) and the “Bacterial Growth Rating 1 day” value is listed as 4 (11-25). The “Bacterial Growth Rating 2 day” value in the experiment on Bacteria Pool [1] is 3 (5-10). In experiment [2], the “Bacterial Growth Rating 1 wk” value is 1 (0 (No Growth)), the “Bacterial Growth Rating 2 wk” value is reported as 1 (0 (No Growth)), the “Bacterial Growth Rating 3 wk” value was 1 (0 (No Growth)) and the “Bacterial Growth Rating 1 day” value is reported as 3 (5-10). The “Bacterial Growth Rating 2 day” value in experiment [2] was 1 (0 (No Growth)). Further, in experiment [3], the “Bacterial Growth Rating 1 wk” value was 2 (1-4), the “Bacterial Growth Rating 2 wk” value was 1 (0 (No Growth)), the “Bacterial Growth Rating 3 wk” value was 1 (0 (No Growth)) and the “Bacterial Growth Rating 1 day” value is listed as 2 (1-4). Further, the “Bacterial Growth Rating 2 day” value in experiment [3] was 3 (5-10). Besides, in the experiment with Bacteria Pool [4], the “Bacterial Growth Rating 1 wk” value is 8 (201-300), the “Bacterial Growth Rating 2 wk” value came out at 9, the “Bacterial Growth Rating 3 wk” value was 9 and the “Bacterial Growth Rating 1 day” value was 9. The “Bacterial Growth Rating 2 day” value with Bacteria Pool [4] is on record as 9.
`CCc1ccc(O)c(OC)c1` [ethylguaiacol, 4-ethyl-2-methoxyphenol]: in the experiment with Bacteria Pool [1], the “Bacterial Growth Rating 1 wk” value is listed as 5 (26-50), the “Bacterial Growth Rating 2 wk” value is given as 4 (11-25), the “Bacterial Growth Rating 3 wk” value is given as 1 (0 (No Growth)) and the “Bacterial Growth Rating 1 day” value was found to be 9. For the same molecule, the “Bacterial Growth Rating 2 day” value in the experiment with Bacteria Pool [1] was 6 (51-100). Besides, in experiment [2], the “Bacterial Growth Rating 1 wk” value is 3 (5-10), the “Bacterial Growth Rating 2 wk” value is recorded as 2/2 (1-4), the “Bacterial Growth Rating 3 wk” value was 3/3 (5-10) and the “Bacterial Growth Rating 1 day” value is recorded as 4/4 (11-25). In experiment [2], the “Bacterial Growth Rating 2 day” value was 3 (5-10). In experiment [3], the “Bacterial Growth Rating 1 wk” value is 4 (11-25), the “Bacterial Growth Rating 2 wk” value was 2/2 (1-4), the “Bacterial Growth Rating 3 wk” value is given as 3/3 (5-10) and the “Bacterial Growth Rating 1 day” value is listed as 4/4 (11-25). The “Bacterial Growth Rating 2 day” value in experiment [3] is listed as 4 (11-25). Also, in the experiment with Bacteria Pool [4], the “Bacterial Growth Rating 1 wk” value worked out at 9, the “Bacterial Growth Rating 2 wk” value amounted to 9, the “Bacterial Growth Rating 3 wk” value was found to be 9 and the “Bacterial Growth Rating 1 day” value was found to be 9. In the experiment on Bacteria Pool [4], the “Bacterial Growth Rating 2 day” value was 9.
For the molecule `COc1cc(C=CC(=O)O)ccc1O` [ferulic acid, 4-hydroxy-3-methoxycinnamic acid], in the experiment on Bacteria Pool [1], the “Bacterial Growth Rating 1 wk” value was determined as 9, the “Bacterial Growth Rating 2 wk” value was 6 (51-100), the “Bacterial Growth Rating 3 wk” value came out at 9 and the “Bacterial Growth Rating 1 day” value is 7 (101-200). The “Bacterial Growth Rating 2 day” value in the experiment with Bacteria Pool [1] was 6 (51-100). For the same molecule, in experiment [2], the “Bacterial Growth Rating 1 wk” value was 3/3 (5-10), the “Bacterial Growth Rating 2 wk” value is recorded as 4 (11-25), the “Bacterial Growth Rating 3 wk” value is 3 (5-10) and the “Bacterial Growth Rating 1 day” value was 4 (11-25). Besides, the “Bacterial Growth Rating 2 day” value in experiment [2] is 4 (11-25). Besides, in experiment [3], the “Bacterial Growth Rating 1 wk” value was 3/3 (5-10), the “Bacterial Growth Rating 2 wk” value is given as 3 (5-10), the “Bacterial Growth Rating 3 wk” value was 4 (11-25) and the “Bacterial Growth Rating 1 day” value is 6 (51-100). Also, in experiment [3], the “Bacterial Growth Rating 2 day” value was 6 (51-100). In the experiment on Bacteria Pool [4], the “Bacterial Growth Rating 1 wk” value came out at 9, the “Bacterial Growth Rating 2 wk” value is 9, the “Bacterial Growth Rating 3 wk” value is on record as 9 and the “Bacterial Growth Rating 1 day” value is listed as 9. For the same molecule, the “Bacterial Growth Rating 2 day” value in the experiment with Bacteria Pool [4] is recorded as 9.
